# Values of other authors as cited in paper PMC8875809, “Comparative venomic profiles of three spiders of the genus Phoneutria” (The Journal of Venomous Animals and Toxins Including …, 2022).
# Entries after “also recorded” stand apart in the source; their conditions may differ.
# Legend:
# [1] = tested on: sodium channels; settings: ref [78]
# Description: PnTx2-6 (MW 5288 Da) contains 48 amino acids, of which 10 are cysteine residues. […] Due to such effects on penile erection, PnTx2-6 has shown good perspectives for clinical application on erectile dysfunction treatment. […] Although we have not assayed Tx2-6 isoforms from P. eickstedtae (Pe-V) and P. pertyi (Pp- V), we believe that them has similar effects on sodium channels like PnTx2-6 isoform and similar results would be expected, because these toxins are homologous. The species P. eickstedtae and P. pertyi are rarer spiders. In addition, since Tx1 is the most abundant toxin, only this molecule was used for electrophysiology assays. We believe that our data, as they are, already bring the news to arouse ...
# [2] = tested on: nitric oxide (NO)/cyclic GMP pathway; settings: ref [24],[35],[36]
# Description: (§1) PnTx2-6 (MW 5288 Da) contains 48 amino acids, of which 10 are cysteine residues. […] Due to such effects on penile erection, PnTx2-6 has shown good perspectives for clinical application on erectile dysfunction treatment. PnTx2-6 modulates the nitric oxide (NO)/cyclic GMP pathwa ...
# [3] = tested on: penile erection
# Description: as §1, with “PhTx2 toxins inhibit sodium channel inactivation. These toxins are the main responsible for the strongest neurotoxic effects of venom. […] These toxins have been explored as models for the development of a potential drug for the treatment of erectile dysfunction. || PnTx2-6 (MW” for “PnTx2-6 (MW”
substance,measurement,setting,value
"PnTx2-6: contains 48 amino acids, of which 10 are cysteine residues; P. nigriventer toxin (P29425) (ATCAGQDQPCKETCDCCGERGECVCGGPCICRQGYFWIAWYKLANCKK; UniProt P29425 35-82, looked up)",effect on sodium channel inactivation,[1],modifies the kinetics of sodium channel inactivation; also recorded: decreases sodium channel inactivation
same,voltage dependence of activation / sodium influx,[1],"shifting the voltage dependence of activation towards more hyperpolarized potentials, thus increasing sodium influx"
same,NO release in corpus cavernosum tissue,[2],increased release of NO in the corpus cavernosum tissue
same,priapism,"[3]; ref [21],[24]",found to induce priapism
same,penile erection in envenomation,[3]; ref [29],responsible for the penile erection
